Data from US4028402A, “Biguanide salts” (Hoffmann-La Roche Inc., priority 1974, dated 1977).
Structures can show the parent of a compound that is named as a salt. Where two headings read alike, the source gives them in different places.

What was measured:
blood glucose = conditions: single oral dose, 4 h after administration
Description: (§1) Four hours after administration of the test substances, the animals were decapitated. After deproteinization of the mixed blood with perchloric acid, glucose concentration was determined photometrically by the hexokinase method. Lactate concentration was determined photometrically with lactate dehydrogenase.

blood lactate = conditions: single oral dose, 4 h after administration
Description: as §1

in vivo [1] = conditions: mouse, po, single daily oral administration for 10 days, 24 hours after the last administration
in vivo [2] = conditions: rat, po, single daily oral administration for 10 days, 24 hours after the last administration
Mouse = conditions: single daily oral administration for 10 days, 24 hours after the last administration
Rat = conditions: single daily oral administration for 10 days, 24 hours after the last administration
[3] = 100 μmol/kg, listed as Bis-dichloroacetate of n-butylbiguanide
[4] = 300 μmol/kg, listed as Bis-dichloroacetate of n-butylbiguanide
[5] = 1000 μmol/kg, listed as Bis-dichloroacetate of n-butylbiguanide
[6] = 100 μmol/kg, listed as Hydrochloride of n-butylbiguanide
[7] = 300 μmol/kg, listed as Hydrochloride of n-butylbiguanide
[8] = 1000 μmol/kg, listed as Hydrochloride of n-butylbiguanide

With `CCCCNC(=N)NC(=N)N` [n-butylbiguanide bis-dichloroacetate, 1-butylbiguanide bis-(dichloroacetate)] the “Blood glucose, % in controls” value (blood glucose; [3]) was 69 % in controls, the “Blood glucose, % in controls” value (blood glucose; [4]) was 62 % in controls and the “Blood glucose, % in controls” value (blood glucose; [5]) was 37 % in controls. The “Blood lactate, % in controls” value (blood lactate; [3]) was 91 % in controls, the “Blood lactate, % in controls” value (blood lactate; [4]) was 100 % in controls and the “Blood lactate, % in controls” value (blood lactate; [5]) was 106 % in controls. The LD50 (in vivo [1]) was 1130 ± 180 µmol/kg and the LD50 (in vivo [2]) was 1200 ± 200 µmol/kg.

In the case of `CCCCNC(=N)NC(=N)N` [n-butylbiguanide hydrochloride, 1-butylbiguanide.HCl], the “Blood glucose, % in controls” value (blood glucose; [6]) is reported as 76 % in controls, the “Blood glucose, % in controls” value (blood glucose; [7]) is reported as 68 % in controls and the “Blood glucose, % in controls” value (blood glucose; [8]) is reported as 35 % in controls. For the same compound, the “Blood lactate, % in controls” value (blood lactate; [6]) was 123 % in controls, the “Blood lactate, % in controls” value (blood lactate; [7]) was 114 % in controls and the “Blood lactate, % in controls” value (blood lactate; [8]) was 254 % in controls. For the same compound, the LD50 (Mouse) was 1.37 ± 0.22 mmol/kg and the LD50 (Rat) was 0.66 ± 0.10 mmol/kg.
